Measurements published in paper PMC12751141, “Disrupting α-Synuclein–ClpP interaction restores mitochondrial function and attenuates neuropathology in Parkinson’s disease models” (Molecular Neurodegeneration, 2025).
Entries after “also recorded” stand apart in the source; their conditions may differ.

Tests used:
[1] = test system: αSyn oligomer; experiment: αSyn oligomer ELISA, Tet-inducible αSyn SH-SY5Y cells; type: cell-based, human; conditions: 10 µM, two days, vs TAT, n = 4
Description: After one day incubation with doxycycline (1µM), αSyn tet-on inducible expression SHSY5Y cells were treated with TAT or CS2 peptides at 10 µM for another two days. The level of αSyn monomer released into culture medium was measured using LEGEND MAX human αSyn ELISA kit (448607, Biolegend). The level of extracellular and intracellular αSyn oligomers was measured using human alpha synuclein oligomer ELISA kit (MBS730762, Mybioresource).

[2] = test system: ClpP (SH-SY5Y cells); experiment: ClpP protein level, western blot, SH-SY5Y cells; type: cell-based
[3] = test system: αSyn-PFF-inoculated primary cortical neurons; experiment: Mitochondrial function (Mito-SOX, TMRM, ATP) in αSyn-PFF-inoculated primary cortical neurons; type: cell-based, mouse; conditions: 1 µM daily
Description: Primary cortical neurons were isolated from normal E18 mouse cortex (sex undetermined) and cultured using complete culturing kit (cat#: KTC57ECX, TransnetYX Tissue). Briefly, 100,000 cells were seeded on poly-D-lysine coated glass coverslips (PDL15mm, TransnetYX Tissue) and cultured in NbActiv1 medium (NB1, TransnetYX Tissue). Neurons were treated with sonicated human α-Syn-PFF (SPR-322, StressMarq Biosciences) starting on post-seeding Day 5 till Day 14. Starting from post-seeding Day 9, TAT or CS2 peptide was added daily at 1µM. Neurons were fixed on Day 14 and subjected for experiments.
Cells cultured on coverslips or 24-well plates were washed with DPBS and then incubated with 5 µM Mito-SOX™ Red (Invitrogen, M36008), a mitochondrial superoxide indicator, for 10 min at 37 °C. For cells cultured on coverslips, the images were visualized by microscope, and quantification of images was then carried out using NIH ImageJ software. At least 100 cells per group were counted in the analysis.
Cells cultured on coverslips or 24-well plates were washed with DPBS and then incubated with 0.25 µM Tetramethylrhodamine, methyl ester (TMRM) (Invitrogen, T668), for 20 min at 37 °C. For cells cultured on coverslips, the images were visualized by microscope, and quantification of images was then carried out using NIH Fiji ImageJ software. At least 100 cells per group were counted in the analysis.
Cells were seeded in 24-well plates, followed by the indicated treatment. The ATP level in each well was determined using the ATP assay kit according to the manufacturer’s procedures (Cayman Chemical, 700410).

[4] = test system: αSyn oligomerization (VN/VC-αSyn), SH-SY5Y cells; experiment: BiFC split-Venus αSyn oligomerization in SH-SY5Y cells; type: cell-based
Excerpt: To construct truncated-αSyn plasmids, pcDNA3.1(-) was digested with BsteII and XbaI, and ΔN-, ΔC- and ΔNAC-αSyn was PCR-amplified using self-designed primers and inserted into the plasmid backbone. Cells were transfected with TransIT-2020 (Mirus Bio, LLC) following the manufacturer’s protocol.
The bimolecular fluorescence was examined 24-hour after transfection (n = 3, one-way ANOVA with Tukey’s post-hoc test, scale bar = 30 μm). (D) Quantification of the concentration (ng/ml) of extracellular αSyn monomer and oligomer, and intracellular αSyn oligomer in Tet-inducible SH-SY5Y cells that were pre-treated with TAT or CS2 peptide 30-minute before adding doxycycline (Dox) to induce αSyn expression. The concentration of αSyn species was determined by ELISA (n = 4, one-way ANOVA with Tukey’s post-hoc test; data are mean ± SEM). (E) Representative images of Mito-SOX staining in SH-SY5Y cells that were pre-treated with TAT or CS2 peptide and transfected with split Venus-αSyn vectors. Mitochondrial ROS production was determined by Mito-SOX staining after 24-hour transfection (n = 4, two-tailed Student’s t test, scale bar = 30 μm).
The bimolecular fluorescence was examined 24-hour after the transfection and quantitated (n = 14 areas/group, one-way ANOVA with Tukey’s post-hoc test, data are mean ± SEM).

[5] = test system: ClpP
Description: ClpP peptidase activity in vitro was measured as previously described (REF). Briefly, human recombinant ClpP (10 µM, obtained from Dr. Aaron Schimmer, Princes Margartet Cancer Centre, Canada) were incubated in the reaction buffer (50mM Tris PH 8.0, 200mM KCl, 1mM DTT, 2mM ATP) under 37 °C for 10 min. For co-incubation with αSyn, recombinant ClpP and WT or C-terminal truncated or NAC-domain truncated recombinant αSyn (S-1001-1, S-1012-1, S-1015-1, rPeptide) were pre-incubated for 30 min under room temperature. Fluorescent substrate of ClpP, ac-WLA-AMC (50 µM), were then added in the reaction buffer. The fluorescence signal was read using TECAN infinite M1000 up for 30 min at excitation/emission wavelength 345/445. ClpP peptidase activity were determined as the slope of the regression line.
(C) In vitro ClpP peptidase activity was measured in presence of TAT or CS2 peptide (50/100 µM). The fluorescence intensity of ac-WLA-AMC (50 µM), a fluorogenic substrate of ClpP, was measured (0-30 min). Quantification of ClpP activity (n = 5, one-way ANOVA with Tukey’s post-hoc test; data are mean ± SEM).

CC(C)[C@H](NC(=O)CNC(=O)CNC(=O)CCCCCNC(=O)[C@H](CCCNC(=N)N)NC(=O)[C@H](CCCNC(=N)N)NC(=O)[C@H](CCCNC(=N)N)NC(=O)[C@H](CCC(N)=O)NC(=O)[C@H](CCCNC(=N)N)NC(=O)[C@H](CCCNC(=N)N)NC(=O)[C@H](CCCCN)NC(=O)[C@H](CCCCN)NC(=O)[C@H](CCCNC(=N)N)NC(=O)CNC(=O)[C@@H](N)Cc1ccc(O)cc1)C(=O)N[C@H](C(=O)N[C@H](C(=O)N[C@@H](C)C(=O)O)[C@@H](C)O)C(C)C [CS2, TAT-C6-GGVVTA] was tested, and the “extracellular αSyn oligomer” value [1] was “decreased levels”, the “intracellular αSyn oligomer” value [1] was “decreased levels” and the “ClpP level, Tet-inducible αSyn SH-SY5Y” value ([2]; Tet-inducible αSyn-expressing SH-SY5Y, vs TAT, n = 3) was “marked increase in ClpP levels”. The “ClpP protein level, SH-SY5Y” value ([2]; WT or A53T αSyn overexpression, 30 min pretreatment, n = 4–5 (CS1: n = 4)) was “significantly restored ClpP protein levels”, the “ATP content, PFF neurons” value ([3]; n = 4) was “rescued mitochondrial membrane potential and ATP content” and the “mitochondrial ROS, PFF neurons” value ([3]; Mito-SOX, n = 90-100 neurons per group) was “reduced mitochondrial ROS”. The “mitochondrial membrane potential, PFF neurons” value ([3]; TMRM, n = 90-100 neurons per group) was “rescued mitochondrial membrane potential”, the “αSyn oligomerization, ClpP-deficient cells” value ([4]; ClpPsh SH-SY5Y, effect of reducing αSyn oligomerization, n = 14 areas/group) was “no protective effect; also recorded: not observed in ClpP-deficient cells” and the “BiFC signal / αSyn oligomerization” value ([4]; SH-SY5Y expressing VN/VC-αSyn, 24-hour after transfection) was “significantly reduced BiFC signal intensity”. The IC50 ([4]; SH-SY5Y expressing VN/VC-αSyn, pretreatment, 24-hour after transfection, n = 3, read-out: IC50, BiFC αSyn oligomer formation) was about 2.5 µM, the “ClpP peptidase activity restoration, WT αSyn” value [5] was “restored ClpP peptidase activity” and the “ClpP peptidase activity, peptide alone” value [5] was “neither TAT nor CS2 alone impaired ClpP activity”. For the same compound, the “ClpP peptidase activity restoration, A53T αSyn” value ([5]; inhibition by A53T mutant αSyn, ac-WLA-AMC 50 µM, 0–30 min, representative of 4 experiments) was “restored ClpP peptidase activity”.
